Like-named read-outs stand apart in the source and are kept apart here.
What was measured:
[1] = system: human MDA-MB-231 breast tumor cells; test: Growth assay (Cell Titer Glo); assay type: cell-based; settings: for inhibition at 10 µM / % Growth Inhibition at 10 μM: mean +/− spread
Method: (§1) All human tumor cell lines were obtained from ATCC and grown under standard cell culture conditions at 37° C. in a humidified atmosphere with 5% CO2. Cells were grown in RPMI 1640 supplemented with 5% fetal bovine serum 2 mM glutamine, 100 units/ml penicillin, 100 units/ml streptomycin, and 0.25 μg/ml amphotericin. Cells were harvested at 70 to 90% confluence with trypsin/EDTA and used immediately Cell count and viability was determined by Trypan blue staining followed by hemocytometry. Only cultures displaying >95% cell viability were used for experiments. HMEC were grown according to the specifications from the supplier (Lonzo).
(§2) Tissue culture microtiter 96-well plates were seeded with cells at a density of 5,000 cells/well. The plates were incubated for 18-24 hours prior to any treatment. All test compounds were solubilized in 100% DMSO and diluted with media to obtain a final DMSO concentration of 0.1%. Cell viability was measured 72 hours after treatment by the Cell Titer Glo Assay (Promega), which is a luminescent assay that is an indicator of live cells as a function of metabolic activity and ATP content. The assay was performed according to manufacturer's specifications. Luminescence was measured by a Perkin Elmer Victor® multi-label plate reader.^6
(§3) Dose response curves were analyzed using Prism™ 4 software (GraphPad) to calculate IC50 values using a four parameter logistic equation.

HT-29 = test: Growth assay (Cell Titer Glo); assay type: cell-based, human; settings: HT-29 colon
Method: (§4) Compounds 2a-h were tested for tumor cell growth inhibitory activity using the human breast MDA-MB-231 and ZR75-1 tumor cell lines and the colon CACO-2, SW-1116, and HT-29 tumor cell lines.
as §1, §2, §3

ZR75-1 = test: Growth assay (Cell Titer Glo); assay type: cell-based; settings: Homo sapiens, ZR-75-1; ZR75-1 breast; 72 h
Method: as §4, §1, §2, §3

SW1116 = test: Growth assay (Cell Titer Glo); assay type: cell-based; settings: Homo sapiens, SW 1116; SW1116 colon; 72 h
Method: as §4, §1, §2, §3

CACO-2 = test: Growth assay (Cell Titer Glo); assay type: cell-based; settings: Homo sapiens; CACO-2 colon; 72 h
Method: as §4, §1, §2, §3

[2] = Homo sapiens, MDA-MB-231, MDA-MB-231
[3] = Homo sapiens, MDA-MB-231, MDA-MB-231, Tables 1 and 2, read-out: Growth Inhibition IC50, μM (95% CI)
[4] = Homo sapiens, MDA-MB-231, 72 h, MDA-MB-231 breast, 72 h, Tables 3-5, read-out: IC50 value, μM, growth
[5] = MDA-MB-231, Tables 1 and 2, read-out: Growth Inhibition IC50, μM (95% CI)
[6] = MDA-MB-231 breast, 72 h, Tables 3-5, read-out: IC50 value, μM, growth

| Structure (SMILES) | melting point [°C] | inhibition at 10 µM [1, 2] [%] | IC50 [1, 4] [µM] | other results |
| --- | --- | --- | --- | --- |
| COC(=O)[C@H]1Cc2c([nH]c3ccccc23)[C@@H](c2cc(OC)ccc2OC)N1 [Compound 1e, (1R,3R) Methyl 1-(2,5-dimethoxyphenyl)-2,3,4,9-tetrahydro-1H-β-carboline-3-carboxylate] | 102 to 105 |  |  |  |
| COC(=O)[C@H]1Cc2c([nH]c3ccccc23)[C@H](c2cc(OC)ccc2OC)N1 [Compound 1f, (1S,3R) Methyl 1-(2,5-dimethoxyphenyl)-2,3,4,9-tetrahydro-1H-β-carboline-3-carboxylate] | 139 to 142 |  |  |  |
| COC(=O)[C@@H]1Cc2c([nH]c3ccccc23)[C@H](c2cc(OC)ccc2OC)N1 [Compound 1g, (1S,3S) Methyl 1-(2,5-dimethoxyphenyl)-2,3,4,9-tetrahydro-1H-β-carboline-3-carboxylate] | 100 to 102 |  |  |  |
| COC(=O)[C@@H]1Cc2c([nH]c3ccccc23)[C@@H](c2cc(OC)ccc2OC)N1 [Compound 1h, (1R,3S) Methyl 1-(2,5-dimethoxyphenyl)-2,3,4,9-tetrahydro-1H-β-carboline-3-carboxylate] | 138 to 141 |  |  |  |
| COC(=O)[C@H]1Cc2c([nH]c3ccccc23)[C@@H](c2ccc(Cl)cc2Cl)N1 [Compound 1i, (1R,3R) Methyl-1-(2,4-dichlorophenyl)-2,3,4,9-tetrahydro-1H-β-carboline-3-carboxylate] | 88 to 92 | 29 |  |  |
| COC(=O)[C@H]1Cc2c([nH]c3ccccc23)[C@H](c2ccc(Cl)cc2Cl)N1 [Compound 1j, (1S,3R) Methyl 1-(2,4-dichlorophenyl)-2,3,4,9-tetrahydro-1H-β-carboline-3-carboxylate] | 130 to 133 | 78 |  | IC50 [1, 3]: 6.73 µM |
| COC(=O)[C@@H]1Cc2c([nH]c3ccccc23)[C@H](c2ccc(Cl)cc2Cl)N1 [Compound 1k, (1S,3S)Methyl 1-(2,4-dichlorophenyl)-2,3,4,9-tetrahydro-1H-β-carboline-3-carboxylate] | 90 to 92 | 50 |  |  |
| COC(=O)[C@@H]1Cc2c([nH]c3ccccc23)[C@@H](c2ccc(Cl)cc2Cl)N1 [Compound 1l, (1R,3S)Methyl 1-(2,4-dichlorophenyl)-2,3,4,9-tetrahydro-1H-β-carboline-3-carboxylate] | 128 to 130 | 28 |  |  |
| COC(=O)[C@H]1Cc2c([nH]c3ccccc23)[C@@H](c2ccc(Cl)c(Cl)c2)N1 [Compound 1m, (1R,3R) Methyl-1-(3,4-dichlorophenyl)-2,3,4,9-tetrahydro-1H-β-carboline-3-carboxylate] | 90 to 92 | 43 |  |  |
| COC(=O)[C@H]1Cc2c([nH]c3ccccc23)[C@H](c2ccc(Cl)c(Cl)c2)N1 [Compound 1n, (1S,3R) Methyl-1-(3,4-dichlorophenyl)-2,3,4,9-tetrahydro-1H-β-carboline-3-carboxylate] | 140 to 143 | 100 |  | IC50 [1, 3]: 4.62 µM |
| COC(=O)[C@@H]1Cc2c([nH]c3ccccc23)[C@H](c2ccc(Cl)c(Cl)c2)N1 [Compound 1o, (1S,3S) Methyl-1-(3,4-dichlorophenyl)-2,3,4,9-tetrahydro-1H-β-carboline-3-carboxylate] | 88 to 91 | 62 |  | IC50 [1, 3]: 6.98 µM |
| COC(=O)[C@@H]1Cc2c([nH]c3ccccc23)[C@@H](c2ccc(Cl)c(Cl)c2)N1 [Compound 1p, (1R,3S)Methyl-1-(3,4-dichlorophenyl)-2,3,4,9-tetrahydro-1H-β-carboline-3-carboxylate] | 139 to 142 | 48 |  |  |
| COC(=O)[C@H]1Cc2c([nH]c3ccccc23)[C@@H](c2c(Cl)cccc2Cl)N1 [Compound 1q, (1R,3R) Methyl 1-(2,6-dichlorophenyl)-2,3,4,9-tetrahydro-1H-β-carboline-3 carboxylate] | 102 to 105 |  |  |  |
| COC(=O)[C@@H]1Cc2c([nH]c3ccccc23)[C@H](c2c(Cl)cccc2Cl)N1 [Compound 1r, (1S,3S) Methyl 1-(2,6-dichlorophenyl)-2,3,4,9-tetrahydro-1H-β-carboline-3-carboxylate] | 101 to 103 | 52 |  |  |
| COC(=O)[C@H]1Cc2c([nH]c3ccccc23)[C@@H](c2ccccc2Br)N1C(=O)CCl [Compound 2a, Methyl (1R,3R)-1-(2-bromophenyl)-2-(2-chloroacetyl)-2,3,4,9-tetrahydro-1H-β-carboline-3-carboxylate] |  |  | 0.06 | IC50 (HT-29; Homo sapiens, HT-29, 72 h): 1.9 µM; IC50 (ZR75-1): 3.52 µM; IC50 (SW1116): 2.79 µM; IC50 (CACO-2): 0.79 µM |
| COC(=O)[C@H]1Cc2c([nH]c3ccccc23)[C@@H](c2ccc(Cl)cc2Cl)N1C(=O)CCl [Compound 2i, (1R,3R) Methyl 1-(2,4-dichlorophenyl)-2-(2-chloroacetyl)-2,3,4,9-tetrahydro-1H-β-carboline-3-carboxylate] | 215 to 218 | 98 | 0.56 | IC50 [1, 3]: 0.56 µM |
| COC(=O)[C@@H]1Cc2c([nH]c3ccccc23)[C@H](c2ccc(Cl)cc2Cl)N1C(=O)CCl [Compound 2k, (1S,3S) Methyl 1-(2,4dichlorophenyl)-2-(2-chloroacetyl)-2,3,4,9-tetrahydro-1H-β-carboline-3-carboxylate] | 215 to 218 | 55 | 0.38 |  |
| COC(=O)[C@@H]1Cc2c([nH]c3ccccc23)[C@@H](c2ccc(Cl)cc2Cl)N1C(=O)CCl [Compound 2l, (1R,3S) Methyl 1-(2,4-dichlorophenyl)-2-(2-chloroacetyl)-2,3,4,9-tetrahydro-1H-β-carboline-3-carboxylate] | 109 to 112 | 98 | 1.24 | IC50 [1, 3]: 1.24 µM |
| COC(=O)[C@H]1Cc2c([nH]c3ccccc23)[C@@H](c2ccc(Cl)c(Cl)c2)N1C(=O)CCl [Compound 2m, (1R,3R) Methyl 1-(3,4-dichlorophenyl)-2-(2-chloroacetyl)-2,3,4,9-tetrahydro-1H-β-carboline-3-carboxylate] | 283 to 285 |  | > 10 |  |
| COC(=O)[C@H]1Cc2c([nH]c3ccccc23)[C@H](c2ccc(Cl)c(Cl)c2)N1C(=O)CCl [Compound 2n, (1S,3R) Methyl 1-(3,4dichlorophenyl)-2-(2-chloroacetyl)-2,3,4,9-tetrahydro-1H-β-carboline-3-carboxylate] | 163 to 165 | 50 | 1.2 | IC50 (HT-29; Homo sapiens, HT-29, 72 h): > 10 µM |
| COC(=O)[C@@H]1Cc2c([nH]c3ccccc23)[C@H](c2ccc(Cl)c(Cl)c2)N1C(=O)CCl [Compound 2o, (1S,3S) Methyl 1-(3,4-dichlorophenyl)-2-(2-chloroacetyl)-2,3,4,9-tetrahydro-1H-β-carboline-3-carboxylate] | 283 to 284 | 43 | > 10 |  |
| COC(=O)[C@@H]1Cc2c([nH]c3ccccc23)[C@@H](c2ccc(Cl)c(Cl)c2)N1C(=O)CCl [Compound 2p, (1R,3S) Methyl 1-(3,4-dichloro-phenyl)-2 (2-chloroacetyl)-2,3,4,9-tetrahydro-1H-β-carboline-3-carboxylate] | 162 to 165 | 55 | > 10 | IC50 (HT-29; Homo sapiens, HT-29, 72 h): > 10 µM |
| COC(=O)C1Cc2c([nH]c3ccccc23)C(c2c(Cl)cccc2Cl)N1C(=O)CCl [Compound 2q, (1R,3R) Methyl 1-(2,6-dichlorophenyl)-2-(2-chloroacetyl)-2,3,4,9-tetrahydro 1H-β-carboline-3-carboxylate] | 147 to 150 |  |  | % Growth Inhibition at 10 μM ([1]; MDA-MB-231): 99 +/− 0.01%; IC50 [1, 5]: 0.05 µM; IC50 [1, 6]: 0.04 µM; IC50 (HT-29; Homo sapiens, HT-29, 72 h): 1.5 µM |
| COC(=O)C1Cc2c([nH]c3ccccc23)C(c2c(Cl)cccc2Cl)N1C(=O)CCl [Compound 2r, (1S,3S) Methyl 1-(2,6-dichlorophenyl)-2-(2-chloroacetyl)-2,3,4,9-tetrahydro-1H-β-carboline-3-carboxyl] | 153 to 156 |  |  | % Growth Inhibition at 10 μM ([1]; MDA-MB-231): 24 +/− 0.54%; IC50 [1, 5]: 0.42 µM; IC50 [1, 6]: 0.44 µM; IC50 (HT-29; 72 h): 1 µM |
